Patent publication US8791158B2, “Methods of treating meibomian gland dysfunction” (GTX, Inc., priority 2010, dated 2014)

Key:
[1] = system: Meibomian gland secretions of rabbits; conditions: cited from earlier work
[2] = system: acute, orchiectomized (ORX) rabbit model; test: Tear fatty acid composition (palmitate:stearate ratio) after Compound 2 or TP, Example 3; type: in vivo; conditions: ORX rabbits
From the text: The goal of this study was to compare the effect of Compound 2 to testosterone propionate (TP) on tear composition in an acute, orchiectomized (ORX) rabbit model.
Fifteen New Zealand white rabbits weighing approximately 3 lbs were allowed to acclimate for 4 weeks before the start of the study. Animals were weighed on day 0 of the study, randomized according to body weight and allotted to the following dose groups:
Pre-dose tear and blood samples were collected. Animals from groups 2-5 were to premedicated with glycopyrrolate (0.02 mg/kg) and then anesthesia was induced with a combination of ketamine (15 mg/kg): medetomidine (0.25 mg/kg).
Anesthesia was maintained with isoflurane (1 liter/hr). Orchiectomy was performed using a scrotal incision. Animals were revived from anesthesia using atipamezole (1 mg/kg) SQ. Analgesia was provided with buprenorphine (0.05 mg/kg) Immediately after the animals had recovered from anesthesia, they received their first dose with the appropriate test articles as indicated above.
Drug dosing was done once daily for 14 days. Blood was collected at 60 minutes post administration of the last dose of drug and plasma separated for HPLC analysis of parent drug concentrations.
Tears were collected using Schirmer tear strips (Alcon, Tex.) on day 0 before surgery, 24 hours after the last administration of drug (day 15) and also at 42 days (6 weeks after start of study). The tears were stored at −80° C. prior to lipid analysis.
Lipids were hydrolyzed, extracted from the Schirmer strips, derivatized, and subjected to gas chromatography with flame ionization detector (GCFID) to evaluate the lipid composition.
The samples were evaluated for the presence of 28 saturated and unsaturated fatty acids that included methyl caprate (C10:0), methyl laurate (C12:0), methyl 11-dodecenoate (C12:1), methyl myristate (C14:0), methyl myristoleate (C14:1), methyl palmitate (C16:0), methyl palmitoleate (C16:1), methyl stearate (C18:0), methyl oleate (C18:1), methyl vaccenate (C18:1), methyl linoleate (C18:2), methyl gamma linoleate (C18:3), methyl linoleate (C18:3), methyl arachidate (C20:0), methyl 11-eicosenoate (C20:1), methyl 11,14 eicosadinoate (C20:2), methyl 8,11,14 eicosatrienoate (C20:3), methyl eicosapentaenoate (C20:5), methyl behenate (C22:0), methyl erucate (C22:1), methyl 13,16 docosaenoate (C22:2), methyl docosatetraenoate (C22:4), methyl docosapentaenoate (C22:5), methyl docosahexaenoate (C22:6), methyl lignocerate (C24:0), and methyl nervonate (C24:1).
The area under the curve for each individual peak was determined using GC ChemStation software. […] These samples were then washed with a saturated solution of NaCl+0.1% formic acid (FA). […] These samples were all in the predose tear group. Two more samples from the predose group and one sample from Vehicle Intact treated group had small but clear and well to separated peaks that were included in the analysis.
To normalize for the tear content, the lipid composition was expressed as a ratio of the lipid that was most affected by castration (palmitate) to one which remained relatively constant (stearate). Blood was also collected on day 15 (24 hours after last drug administration) of the study, plasma separated and analyzed for Compound 2.
The last dose of drug or vehicle was administered on day 15 of the study Animals were left untreated for 4 weeks (washout period) before tear samples were collected again on Schirmer tear strips and analyzed as indicated above.

C[C@]12CC[C@H]3[C@@H](CCC4=CC(=O)CC[C@@H]43)[C@@H]1CC[C@@H]2O [19-nortestosterone]
Effect on fatty acid profile in total and neutral lipid fractions of Meibomian gland secretions [1]: modulated the fatty acid profile

CCC(=O)O[C@H]1CC[C@H]2[C@@H]3CCC4=CC(=O)CC[C@]4(C)[C@H]3CC[C@]12C [TP, testosterone propionate, reference compound]
Increase of tear palmitate:stearate ratio relative to intact animals ([2]; 2.5 mg/kg, 14 days): two times that of intact animals | Tear palmitate:stearate ratio after 4 week washout ([2]; SQ 2.5 mg/kg for two weeks, then untreated 4 weeks): 1.67±0.17
